Reference: the NIST ThermoML archive (doi:10.1021/je800282a)
± gives the expanded uncertainty stated by the source.

Legend:
[1] = wn = mass fraction of the nth substance listed; settings: for viscosity: 101 kPa, Liquid
[2] = refractive index (Na D-line) (dimensionless); wn = mass fraction of the nth substance listed; settings: 101 kPa, Liquid
[3] = refractive index (Na D-line) (dimensionless); settings: 101.33 kPa, Liquid
[4] = for viscosity: 101.33 kPa, Liquid

CN(CCO)CCO [N-methyldiethanolamine] + O
viscosity ([1]; 298.15 K, w1 = 0.3228): 3.48 ± 0.17 mPa·s | viscosity ([1]; 298.15 K, w1 = 0.488): 9.25 ± 0.35 mPa·s | surface tension liquid-gas ([1]; 303.15 K, w1 = 0.3288): 53.16 ± 1.4 mN/m | surface tension liquid-gas ([1]; 303.15 K, w1 = 0.488): 47.56 ± 1.3 mN/m | viscosity ([1]; 308.15 K, w1 = 0.3228): 2.26 ± 0.13 mPa·s | viscosity ([1]; 308.15 K, w1 = 0.488): 6.14 ± 0.25 mPa·s | surface tension liquid-gas ([1]; 313.15 K, w1 = 0.3288): 52.38 ± 1.4 mN/m | surface tension liquid-gas ([1]; 313.15 K, w1 = 0.488): 46.92 ± 1.3 mN/m | viscosity ([1]; 318.15 K, w1 = 0.3228): 1.82 ± 0.12 mPa·s | viscosity ([1]; 318.15 K, w1 = 0.488): 4.37 ± 0.2 mPa·s | surface tension liquid-gas ([1]; 323.15 K, w1 = 0.3288): 51.42 ± 1.4 mN/m | surface tension liquid-gas ([1]; 323.15 K, w1 = 0.488): 45.58 ± 1.2 mN/m | viscosity ([1]; 328.15 K, w1 = 0.3228): 1.34 ± 0.11 mPa·s | viscosity ([1]; 328.15 K, w1 = 0.488): 3.46 ± 0.17 mPa·s | surface tension liquid-gas ([1]; 333.15 K, w1 = 0.3288): 50.67 ± 1.4 mN/m | surface tension liquid-gas ([1]; 333.15 K, w1 = 0.488): 44.83 ± 1.2 mN/m | viscosity ([1]; 338.15 K, w1 = 0.3228): 1.17 ± 0.1 mPa·s | viscosity ([1]; 338.15 K, w1 = 0.488): 2.81 ± 0.15 mPa·s | refractive index ([2]; 303.15 K, w1 = 0.3228): 1.37748 ± 0.0013 | refractive index ([2]; 303.15 K, w1 = 0.488): 1.40298 ± 0.0013 | refractive index ([2]; 313.15 K, w1 = 0.3228): 1.37604 ± 0.0013 | refractive index ([2]; 313.15 K, w1 = 0.488): 1.39971 ± 0.0013 | refractive index ([2]; 318.15 K, w1 = 0.3228): 1.37467 ± 0.0013 | refractive index ([2]; 318.15 K, w1 = 0.488): 1.39629 ± 0.0013 | refractive index ([2]; 323.15 K, w1 = 0.3228): 1.37305 ± 0.0013 | refractive index ([2]; 323.15 K, w1 = 0.488): 1.39254 ± 0.0013 | refractive index ([2]; 333.15 K, w1 = 0.3228): 1.37134 ± 0.0013 | refractive index ([2]; 333.15 K, w1 = 0.488): 1.38821 ± 0.0013

CN(CCO)CCO [N-methyldiethanolamine]
refractive index ([3]; 303.15 K): 1.46532 ± 0.0012 | refractive index ([3]; 313.15 K): 1.46074 ± 0.0012 | refractive index ([3]; 318.15 K): 1.45892 ± 0.0012 | refractive index ([3]; 323.15 K): 1.45708 ± 0.0012 | refractive index ([3]; 333.15 K): 1.45287 ± 0.0012 | viscosity ([4]; 298.15 K): 77.85 ± 4.8 mPa·s | surface tension liquid-gas ([4]; 303.15 K): 38.74 ± 1.1 mN/m | viscosity ([4]; 308.15 K): 43.9 ± 1.4 mPa·s | surface tension liquid-gas ([4]; 313.15 K): 37.48 ± 1 mN/m | viscosity ([4]; 318.15 K): 27.44 ± 0.92 mPa·s | surface tension liquid-gas ([4]; 323.15 K): 36.82 ± 1 mN/m | viscosity ([4]; 328.15 K): 17.89 ± 0.62 mPa·s | surface tension liquid-gas ([4]; 333.15 K): 35.31 ± 0.98 mN/m | viscosity ([4]; 338.15 K): 12.34 ± 0.45 mPa·s
